Tests used:
Settings in all cases: average of at least two experiments
[1] = biological target: dopamine D2 receptor (Homo sapiens (Human), UniProt P14416); experiment: Secondary radioligand binding assay, D2; set-up: key to Ki D2: “—” indicates that a binding interaction was not detected
Description: (§1) 1. Secondary Radioligand Binding Assays
(§2) The detailed experimental protocols for the radioligand and functional receptor assays are available on the NIMH PDSP website at http://pdsp.med.unc.edu/UNC-CH %20Protocol %20Book.pdf.
(§3) Radioligand is diluted to five times the assay concentration (see Table 18) in Standard Binding Buffer. Typically, the assay concentration of radioligand is a value between one half the KD and the KD of a particular radioligand at its target. 50 μl aliquots of radioligand are dispensed into the wells of a 96-well plate containing 100 μl of Standard Binding Buffer. Then, duplicate 50 μl aliquots of the test and reference compound dilutions are added.
(§4) The 250 μl reactions are incubated at room temperature and shielded from light (to prevent photolysis of light-sensitive ligands) for 1.5 hours, then harvested by rapid filtration onto Whatman GF/B glass fiber filters pre-soaked with 0.3% polyethyleneimine using a 96-well Brandel harverster. Four rapid 500 μl washes are performed with chilled Standard Binding Buffer to reduce non-specific binding. Filters are placed in 6 ml scintillation tubes and allowed to dry overnight. The next day, 4 ml of EcoScint scintillation cocktail (National Diagnostics) are added to each tube. The tubes are capped, labeled, and counted by liquid scintillation counting. […] The filter mats are dried, then scintillant is melted onto the filters and the radioactivity retained on the filters is counted in a Microbeta scintillation counter.
(§5) Raw data (dpm) representing total radioligand binding (i.e. specific+non-specific binding) are plotted as a function of the logarithm of the molar concentration of the competitor (i.e. test or reference compound).
(§6) B. Dopamine Receptors: D1, D2, D3, D4, D5 Assay Buffers: Dopamine Binding Buffer (50 mM NaCl, 50 mM HEPES-HCl, 5 mM MgCl2, 0.5 mM EDTA, pH 7.4) Membrane Fraction Source: Transiently or stably transfected cell lines (e.g. HEK293, COS, CHO, NIH3T3)
(§7) The method is carried out in the manner described for the serotonin receptor assay above. Eleven dilutions (5× assay concentration) of the test and reference (see Table 19) compounds are prepared in Dopamine Binding Buffer by serial dilution, as previously described. Radioligand is diluted to five times the assay concentration (see Table 20) in Dopamine Binding Buffer.

[2] = biological target: Alpha1A adrenergic receptor (Homo sapiens (Human), UniProt P35348); experiment: Secondary radioligand binding assay, Alpha1A; set-up: key to Ki Alpha1A: “—” indicates that a binding interaction was not detected
Excerpt: 1. Secondary Radioligand Binding Assays The detailed experimental protocols for the radioligand and functional receptor assays are available on the NIMH PDSP website at http://pdsp.med.unc.edu/UNC-CH %20Protocol %20Book.pdf. Raw data (dpm) representing total radioligand binding (i.e. specific+non-specific binding) are plotted as a function of the logarithm of the molar concentration of the competitor (i.e. test or reference compound). […] C. Adrenergic Receptors: α1A, α1B, α2A, α2B, α2C, β1, β2, β3 Assay Buffers: For α1 receptors, α1 Binding Buffer (20 mM Tris-HCl, 145 mM NaCl, pH 7.4); for α2 receptors, α2 Binding Buffer (50 mM Tris-HCl, 5 mM MgCl2, pH 7.7); for β receptors, β Binding Buffer (50 mM Tris-HCl, 3 mM MnCl2, pH 7.7) Membrane Fraction Source: Transiently or stably transfected cell lines (e.g. HEK293, COS, CHO, NIH3T3) Protocol adapted from Arango et al. […] (1990), Gen. Psychiatry, 47: 1038-1047. The method is carried out in the manner described for the serotonin receptor assay above, except where described below. Eleven dilutions (5× assay concentration) of the test and reference (see Table 20) compounds are prepared in the appropriate buffer by serial dilution, as previously described. Radioligand is diluted to five times the assay concentration (see Table 21) in the appropriate buffer. […] Four rapid 500-μl washes are performed with chilled distilled water (for α1 and β receptors) or 0.1% polyethyleneimine (for α2 receptors) to reduce non-specific binding. Filters are placed in 6 ml scintillation tubes and allowed to dry overnight and the samples are treated to obtain data as described above. [table]

[3] = biological target: dopamine D3 receptor (Homo sapiens (Human), UniProt P35462); experiment: Secondary radioligand binding assay, D3; set-up: key to Ki D3: “—” indicates that a binding interaction was not detected
Description: as §1, §2, §3, §4, §5, §6, §7

[4] = biological target: 5HT4 receptor (Homo sapiens (Human), UniProt Q13639); experiment: Secondary radioligand binding assay, 5HT4; set-up: key: “—” indicates that a binding interaction was not detected
Description: 1. Secondary Radioligand Binding Assays The detailed experimental protocols for the radioligand and functional receptor assays are available on the NIMH PDSP website at http://pdsp.med.unc.edu/UNC-CH %20Protocol %20Book.pdf. Assay Buffer: Standard Binding Buffer (50 mM Tris-HCl, 10 mM MgCl2, 1 mM EDTA, pH 7.4) Membrane Fraction Source: Transiently or stably transfected cell lines (e.g., HEK293, COS, CHO, NIH3T3) Protocol adapted from Roth et al. (1986), J. Pharmacol. Exp. Ther., 238(2): 480-485; and Roth et al. (1994), J. Pharmacol. Exp. Ther., 268(3): 1403-1410. […] A similar stock of a reference compound (positive control) is also prepared. […] Radioligand is diluted to five times the assay concentration (see Table 18) in Standard Binding Buffer. Typically, the assay concentration of radioligand is a value between one half the KD and the KD of a particular radioligand at its target. 50 μl aliquots of radioligand are dispensed into the wells of a 96-well plate containing 100 μl of Standard Binding Buffer. Then, duplicate 50 μl aliquots of the test and reference compound dilutions are added. Finally, crude membrane fractions of cells expressing recombinant target (prepared from 10 cm plates by harvesting PBS-rinsed monolayers, resuspending and lysing in chilled, hypotonic 50 mM Tris-HCl, pH 7.4, centrifuging at 20,000×g, decanting the supernatant and storing at −80° C.; typically, one 10 cm plate provides sufficient material for 24 wells), are resuspended in 3 ml of chilled Standard Binding Buffer and homogenized by several passages through a 26 gauge needle, then 50 μl are dispensed into each well. […] Four rapid 500 μl washes are performed with chilled Standard Binding Buffer to reduce non-specific binding. Filters are placed in 6 ml scintillation tubes and allowed to dry overnight. The next day, 4 ml of EcoScint scintillation cocktail (National Diagnostics) are added to each tube. The tubes are capped, labeled, and counted by liquid scintillation counting. For higher throughput assays, bound radioactivity is harvested onto 0.3% polyethyleneimine-treated, 96-well filter mats using a 96-well Filtermate harvester. The filter mats are dried, then scintillant is melted onto the filters and the radioactivity retained on the filters is counted in a Microbeta scintillation counter. Raw data (dpm) representing total radioligand binding (i.e. specific+non-specific binding) are plotted as a function of the logarithm of the molar concentration of the competitor (i.e. test or reference compound).

[5] = biological target: 5HT5 receptor (Homo sapiens (Human), UniProt P47898); experiment: Secondary radioligand binding assay, 5HT5; set-up: key: “—” indicates that a binding interaction was not detected;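 also: competitive radioligand displacement on membranes from transfected cell lines, incubated at room temperature in the dark, filter-retained radioactivity counted by liquid scintillation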
5HT5 receptor, sequence (P47898 whole entry): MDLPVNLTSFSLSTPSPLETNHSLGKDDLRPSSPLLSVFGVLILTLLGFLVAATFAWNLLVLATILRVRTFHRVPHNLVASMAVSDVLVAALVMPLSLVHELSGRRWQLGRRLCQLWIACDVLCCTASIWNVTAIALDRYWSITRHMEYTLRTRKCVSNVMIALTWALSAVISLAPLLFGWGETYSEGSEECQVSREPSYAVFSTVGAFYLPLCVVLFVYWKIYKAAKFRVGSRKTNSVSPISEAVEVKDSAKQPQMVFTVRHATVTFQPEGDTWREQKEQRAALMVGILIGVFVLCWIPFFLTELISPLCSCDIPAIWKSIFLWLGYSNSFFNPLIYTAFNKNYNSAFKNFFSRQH

5HT4 receptor, sequence (Q13639 whole entry): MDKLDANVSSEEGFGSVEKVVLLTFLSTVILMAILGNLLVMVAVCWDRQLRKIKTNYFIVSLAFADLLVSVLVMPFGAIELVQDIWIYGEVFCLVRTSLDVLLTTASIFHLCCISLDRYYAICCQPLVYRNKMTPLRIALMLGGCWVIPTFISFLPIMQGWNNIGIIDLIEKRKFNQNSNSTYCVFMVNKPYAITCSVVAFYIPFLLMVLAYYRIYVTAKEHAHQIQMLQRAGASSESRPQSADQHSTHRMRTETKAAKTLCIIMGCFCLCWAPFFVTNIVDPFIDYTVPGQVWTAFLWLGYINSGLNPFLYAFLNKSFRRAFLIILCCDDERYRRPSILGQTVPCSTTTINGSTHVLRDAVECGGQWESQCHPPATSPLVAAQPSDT
dopamine D3 receptor, sequence (P35462 whole entry, species assumed): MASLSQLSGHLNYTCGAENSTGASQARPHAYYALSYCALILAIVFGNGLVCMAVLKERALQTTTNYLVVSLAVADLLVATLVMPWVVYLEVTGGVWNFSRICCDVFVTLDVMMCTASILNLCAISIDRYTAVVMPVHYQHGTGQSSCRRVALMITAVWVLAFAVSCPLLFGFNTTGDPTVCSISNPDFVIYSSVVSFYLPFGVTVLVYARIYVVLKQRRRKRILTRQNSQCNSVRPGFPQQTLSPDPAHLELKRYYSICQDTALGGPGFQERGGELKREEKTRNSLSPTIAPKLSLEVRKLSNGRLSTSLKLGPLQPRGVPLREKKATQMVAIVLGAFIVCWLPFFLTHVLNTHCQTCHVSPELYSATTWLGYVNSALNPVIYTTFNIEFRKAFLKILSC
Alpha1A adrenergic receptor, sequence (P35348 whole entry): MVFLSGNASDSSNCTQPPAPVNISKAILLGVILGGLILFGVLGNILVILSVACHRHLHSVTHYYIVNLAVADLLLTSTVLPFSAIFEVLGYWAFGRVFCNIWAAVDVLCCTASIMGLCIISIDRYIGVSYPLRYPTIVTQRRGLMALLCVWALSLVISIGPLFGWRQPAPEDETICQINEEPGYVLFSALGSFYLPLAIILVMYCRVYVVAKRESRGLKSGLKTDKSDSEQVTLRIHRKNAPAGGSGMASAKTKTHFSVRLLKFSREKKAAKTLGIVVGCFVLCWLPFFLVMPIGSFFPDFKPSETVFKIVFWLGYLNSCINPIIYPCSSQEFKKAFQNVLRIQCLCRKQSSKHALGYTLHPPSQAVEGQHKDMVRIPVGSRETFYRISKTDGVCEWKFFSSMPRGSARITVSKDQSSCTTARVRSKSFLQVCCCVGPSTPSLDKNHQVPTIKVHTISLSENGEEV
dopamine D2 receptor, sequence (P14416 whole entry, species assumed): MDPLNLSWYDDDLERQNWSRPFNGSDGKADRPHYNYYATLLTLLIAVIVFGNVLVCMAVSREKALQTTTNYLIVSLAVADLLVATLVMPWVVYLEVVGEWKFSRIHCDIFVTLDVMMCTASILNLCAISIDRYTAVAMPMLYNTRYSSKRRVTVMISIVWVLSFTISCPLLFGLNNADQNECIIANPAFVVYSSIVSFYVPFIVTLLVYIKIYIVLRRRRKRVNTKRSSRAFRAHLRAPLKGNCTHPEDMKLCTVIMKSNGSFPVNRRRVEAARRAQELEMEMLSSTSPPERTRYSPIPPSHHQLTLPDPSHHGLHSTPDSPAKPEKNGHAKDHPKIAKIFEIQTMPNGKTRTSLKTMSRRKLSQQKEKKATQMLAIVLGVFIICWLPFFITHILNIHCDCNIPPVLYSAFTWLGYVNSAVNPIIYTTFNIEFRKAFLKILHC

Structure (SMILES)	Ki D2 [1]	Ki Alpha1A [2]	Ki D3 [3]	Ki 5HT4 [4]	Ki 5HT5 [5]	Ki [1] [µM]	Ki [3] [µM]	Ki [2] [µM]
O=C(CN1CCO[C@@H](COc2cccc(Cl)c2)C1)N1CCc2ccccc21 [Compound 22r, (R)-2-(2-((3-chlorophenoxy)methyl)morpholino)-1-(indolin-1-yl)ethanone]	—	—	—	—	—			
COc1cccc(OC[C@@H]2CN(CC(=O)N3CCc4ccccc43)CCO2)c1 [Compound 24s, (S)-1-(Indolin-1-yl)-2-(2-((3-methoxyphenoxy)methyl)morpholino)ethanone]	—	—	—	—	—			
Cc1ccc(OC[C@@H]2CN(CCN3CCc4ccccc43)CCO2)cn1 [Compound 28s, (S)-4-(2-(Indolin-1-yl)ethyl)-2-(((6-methylpyridin-3-yl)oxy)methyl)morpholine]	—	—	—	—	—			
Clc1cccc(OC[C@H]2CN(CCN3CCc4ccccc43)CCO2)c1 [Compound 23r, (R)-2-((3-Chlorophenoxy)methyl)-4-(2-(indolin-1-yl)ethyl)morpholine]		—	—	—	—	> 10		
Cc1ncccc1OC[C@@H]1CN(CC(=O)N2c3ccccc3CC2C)CCO1.Cl (stereo partly shown) [Compound 60]	—	—	—	—	—			
O=C(CN1CCO[C@@H](COc2cccnc2)C1)N1CCc2ccccc21 [Compound 20r, (R)-1-(Indolin-1-yl)-2-(2-((pyridin-3-yloxy)methyl)morpholino)ethanone]	—	—	—	—	—			
Cc1ccnc(OC[C@H]2CN(CC(=O)N3c4ccccc4CC3C)CCO2)c1 (stereo partly shown) [Compound 70]	—	—	—	—	—			
c1cncc(OC[C@@H]2CN(CCN3CCc4ccccc43)CCO2)c1 [Compound 21s, (S)-4-(2-(Indolin-1-yl)ethyl)-2-((pyridin-3-yloxy)methyl)morpholine]		—		—	—	> 10	8.36	
Cc1ccccc1OC[C@H]1CN(CC(=O)N2c3ccccc3CC2C)CCO1 (stereo partly shown) [Compound 66]	—	—	—	—	—			
Cc1ncccc1OC[C@@H]1CN(CC(=O)N2c3ccccc3C[C@H]2C)CCO1 [Compound 61]	—	—	—	—	—			
c1ccc(OC[C@@H]2CN(CCN3CCc4ccccc43)CCO2)cc1 [Compound 19s, (S)-4-(2-(Indolin-1-yl)ethyl)-2-(phenoxymethyl)morpholine]				—	—	0.342	2.83	2.72
Clc1cccc(OC[C@@H]2CN(CCN3CCc4ccccc43)CCO2)c1 [Compound 23s, (S)-2-((3-chlorophenoxy)methyl)-4-(2-(indolin-1-yl)ethyl)morpholine]				—	—	1.89	6.65	9.04
Cc1ccnc(OC[C@H]2CN(CCN3CCc4ccccc43)CCO2)c1 [Compound 17r, (R)-4-(2-(Indolin-1-yl)ethyl)-2-(((4-methylpyridin-2-yl)oxy)methyl)morpholine]	—	—	—	—	—			
Clc1cncc(OC[C@@H]2CN(CCN3CCc4ccccc43)CCO2)c1 [Compound 27s, (S)-2-(((5-Chloropyridin-3-yl)oxy)methyl)-4-(2-(indolin-1-yl)ethyl)morpholine]		—	—	—	—	> 10		

Reference: patent US9079895B2, “Morpholino compounds, uses and methods” (University of Dundee, priority 2012, dated 2015)
